One data set has as its target T1, human GLP-1R receptor (Homo sapiens, UniProt P43220).
T1 construct: expressed in transfected cells
Kind of data set: GLP-1R low expression cell assay (cAMP TR-FRET, CHO-K1_hGLP-1Rlow_clone10). The data set is classed as cell-based. The conditions noted are these: CHO-K1_hGLP-1Rlow_clone10 cells. The procedure:
Stable cell lines expressing high and low GLP-1R surface expression were generated in CHO-K1 cells transfected (Fugene 6) with a puromycin selectable DNA plasmid encoding human GLP-1R receptor (accession number: NM_002062.5) under control of an EF1A promoter. Transfected cells were seeded into 24-well plates (9,000 cells/well) containing complete medium and incubated in a humidified incubator at 37° C. with 5% carbon dioxide. After overnight incubation, medium was replaced with complete medium supplemented with puromycin (6 μg/mL) and refreshed every 2-3 days to select for stably transfected cells. Individual pools of selected cells were expanded prior to analysis for responsiveness to GLP-1 control peptide using a TR-FRET assay to detect cAMP (LANCE Ultra CAMP Assay, Perkin Elmer). Briefly, cells were collected in Versene solution, plated in 384-well plates (1,000 cells/well) and combined with serially diluted GLP-1R control peptide (10 nL) using an acoustic dispenser (ECHO). Plates were incubated for 30 minutes at 25° C. prior to the addition of EU-CAMP tracer (5 μL) and Ulight-anti-cAMP (5 μL) reagents to each well, followed by 15 minutes incubation at 25° C. TR-FRET signal was detected using an En Vision Multimode Plate Reader (excitation=320 nm; emission=615 and 655 nm). Dose-response curves were used to generate EC50 values as a measure of responsiveness to the GLP-1R control peptide. Selected cell lines were monitored for responsiveness over multiple passages to ensure stability. […] Briefly, GLP-1R expression was analyzed by flow cytometry using a fluorescein-labeled Exendin-4 peptide fluorescent probe (FLEX). Cells were harvested in Versene solution and washed 3-times with PBS+0.5% BSA before incubation with FLEX reagent (10 μM) for 2 hours at room temperature. After incubation, cells were washed 3-times in PBS+0.5% BSA before final resuspension in PBS prior to analysis by flow cytometry to measure FLEX mean fluorescence intensity (MFI) as a measure of GLP-1R expression on the cell surface.
For compound testing in the CHO-K1_hGLP-1Rlow_clone10 cell line, cells were seeded in 384-well plates (1,000 cells/well). Test compounds were serially diluted in DMSO (10-point, 3-fold dilution), added to wells using an ECHO dispenser (10 nL/well) and plates were centrifuged for 1 min and agitated for 2 min at room temperature prior to 30-minute incubation at 25° C. After incubation, Eu-CAMP (5 μL) and Ulight-anti-cAMP (5 μL) reagents were added to each well, followed by centrifugation for 1 minute, agitation for 2 minutes at room temperature, and final incubation of the plates at 25° C. for 15 minutes. Plates were read using an EnVision microplate reader (excitation=320 nm; emission=615 and 655 nm). Dose-response curves were generated from duplicate wells based on percent activation calculated relative to a control GLP-1 peptide agonist that was run in parallel. EC50 values were determined by fitting percent activation as a function of compound concentration using the Hill equation (XLfit).
Stable cell lines expressing high and low GLP-1R surface expression were generated in CHO-K1 cells transfected (Fugene 6) with a puromycin selectable DNA plasmid encoding human GLP-1R receptor (accession number: NM_002062.5) under control of an EF1A promoter. Transfected cells were seeded into 24-well plates (9,000 cells/well) containing complete medium and incubated in a humidified incubator at 37° C. with 5% carbon dioxide. After overnight incubation, medium was replaced with complete medium supplemented with puromycin (6 μg/mL) and refreshed every 2-3 days to select for stably transfected cells. Individual pools of selected cells were expanded prior to analysis for responsiveness to GLP-1 control peptide using a TR-FRET assay to detect cAMP (LANCE Ultra CAMP Assay, Perkin Elmer).

Data set [1] is described as follows: Rat pharmacokinetics, oral dosing. Particulars: for AUC(0-t) / Cmax / half-life: male, Sprague-Dawley, rat plasma. The data set is classed as in vivo, Sprague-Dawley rats. The procedure:
Oral dosing: Compounds were formulated at 0.3 mg/mL or 0.6 mg/mL in a solution comprising 5% polyethylene glycol 400 and 95% (12% (w/v) sulfobutyl-β-cyclodextrin in water) (v/v). Formulated compounds were administered to male, 7-11 week old Sprague-Dawley rats by oral gavage at a dose of 3 mg/kg.
Sample collection: Blood collections of about 0.2 mL per time point were performed from jugular vein or other suitable site of each animal, into pre-chilled commercial EDTA-K2 tubes and placed on wet ice until centrifugation. Blood samples were processed for plasma by centrifugation at approximately 4° C., 3,200 g for 10 min. Plasma was collected and transferred into pre-labeled 96 well plate or polypropylene tubes, quick frozen over dry ice and kept at −60° C. or lower until LC-MS/MS analysis.
Data analysis: Plasma concentration versus time data was plotted in graph and analyzed by non-compartmental approaches using the Phoenix WinNonlin 6.3 software program. Related PK parameters were calculated according to dosing route, e.g., CL, Vdss and C0 for intravenous administration, Cmax, Tmax or % F for extravascular administration, and T1/2, AUC(0-t), AUC(0-inf), MRT(0-t), MRT(0-inf) for all routes.

A short description of data set [2]: Metabolic stability in human hepatocytes. The conditions noted are these: cryopreserved hepatocytes; human hepatocytes, 1 μM. The format is in vitro ADME. How it is done:
(§1) Test compounds were incubated in rat and human hepatocytes and stability was assessed from the substrate […] approach. Test compounds were dissolved in dimethyl sulfoxide (DMSO) to create a 10 mM Stock, and then further diluted to create a 1000× Working Stock of 1 mM with DMSO in 96-well plates for test compounds and the positive control (midazolam). Vials containing cryopreserved hepatocytes were removed from the liquid nitrogen tank and immediately immersed in a 37° C. water bath. The vials were shaken gently until the contents had thawed and were then immediately emptied into 48 mL of pre-warmed HT Medium in a 50 mL conical tube. Cells remaining in the vial were resuspended with 1.0 mL of pre-warmed HT Medium and added to the conical tube. The tube was capped and then gently inverted several times to resuspend the hepatocytes. The cell suspension was centrifuged at 50×g at room temperature for 5 minutes and the supernatant discarded. The cell pellet was loosened by gently swirling the centrifuge tube and was re-suspended in 4 mL of warm Dulbecco's Modified Eagle medium (DMEM). Cell density was determined by a cell counter by Nexcelom, and DMEM medium was added to obtain a target density of 1×10^6 cells/mL. The assay was carried out in 96-well microtiter plates. Test Compounds were incubated at 1 μM with 1×10^6 cells/mL hepatocytes in DMEM for 0, 30, 60, 120 and 240 minutes. The incubation was carried out with gentle shaking at 37° C. under a humid atmosphere of 95% air/5% CO2. The volume of the incubation mixture was 37 μL with a final 0.1% DMSO. At each of the time points, the incubation was stopped by adding 150 μL quenching solution (100% acetonitrile, 0.1% formic acid containing bucetin as an internal standard for positive ESI mode). Subsequently, the mixtures were vortexed for 20 min and centrifuged at 4,000 RPM at 10° C. The supernatant (80 μL) was transferred to a clean 96-well plate and analyzed by LC-MS/MS. Midazolam at 1 μM with a final 0.1% DMSO was included as a positive control to verify assay performance. The percent parent remaining, intrinsic and predicted hepatic clearance and t1/2 were calculated. All samples were analyzed by LC-MS/MS using an AB Sciex API 4000 instrument, coupled to a Shimadzu LC-20AD LC Pump system. Separation was achieved using a Waters Atlantis T3 dC18 reverse phase HPLC column (20 mm×2.1 mm) at a flow rate of 0.5 mL/min. The mobile phase consisted of 0.1% formic acid in water (solvent A) and 0.1% formic acid in 100% acetonitrile (solvent B). Elution conditions are detailed below.
(§2) The ion optics of each test compound were optimized for their declustering potential (DP), […] (CE), collision-cell exit potential (CXP) and used in a selected ion monitoring experiment in the positive ion mode. The peak area ratio of each test compound to internal standard was then evaluated for stability. The extent of metabolism was calculated based on the disappearance of the test compound, compared to its initial concentration. The initial rates of clearance of the test compound were calculated using the linear regression plot of semi-log % remaining of the compound versus time. The elimination rate constant (k) of the linear regression plot was then used to determine t1/2 and the intrinsic clearance (CLint) using the following formula, where Chepatocyte (million cells/mL) is the cell density of the incubation:
(§3) The predicted hepatic clearance (CLhep) was calculated using the well stirred method with the following formula with CLint(in vivo) normalized based on liver weight: […]
(§4) The relevant physiological parameters of liver weight, blood flow, and hepatocellularity for various species are listed below: […]

The test system of a further data set is rat hepatocytes. Kind of data set: Metabolic stability in rat hepatocytes. The data set is classed as in vitro ADME. How it is done: as §1, §2, §3, §4
Data set [3] in a line: Metabolic stability in rat hepatocytes. Particulars: cryopreserved hepatocytes, 1 μM. The format is in vitro ADME. How it is done: as §1, §2, §3, §4
Where [4] appears, read: rat, plasma, po, 3 mg/kg, 3 mg/kg PO (0.3 mg/mL).

T1 sequence (P43220 24-463): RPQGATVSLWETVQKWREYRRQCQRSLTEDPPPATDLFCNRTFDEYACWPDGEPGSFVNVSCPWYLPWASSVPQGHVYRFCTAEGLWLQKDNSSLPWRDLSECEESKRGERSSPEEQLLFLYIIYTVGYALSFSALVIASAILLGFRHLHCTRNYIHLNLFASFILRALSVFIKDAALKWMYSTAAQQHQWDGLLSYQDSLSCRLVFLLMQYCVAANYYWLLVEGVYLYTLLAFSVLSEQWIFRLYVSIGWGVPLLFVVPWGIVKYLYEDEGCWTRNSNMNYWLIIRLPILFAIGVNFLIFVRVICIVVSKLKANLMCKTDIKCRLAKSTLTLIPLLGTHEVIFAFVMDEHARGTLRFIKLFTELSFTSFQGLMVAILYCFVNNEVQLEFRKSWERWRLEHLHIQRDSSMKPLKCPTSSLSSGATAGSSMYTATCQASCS

`N#Cc1ccc(COc2cccc(C3CCN(Cc4nc5ccc(C(=O)O)cc5n4Cc4nccs4)CC3)n2)c(F)c1` [Compound 1]: on human GLP-1R receptor, a half-maximal response (EC50) required 50.1 nM.
In the case of `N#Cc1cc(F)c2c(c1)CCN(c1cccc(C3CCN(Cc4nc5ccc(C(=O)O)cc5n4Cc4cncs4)CC3)n1)C2` [Compound 3], in data set [1] (setting [4]), the AUC(0-t) was determined as 116 ± 23.2 ng·h/mL, the Cmax turned out to be 79.8 ± 24.4 ng/mL and the half-life was 1.1 ± 0.29 h. Also, the EC50 at human GLP-1R receptor came out at 44.2 nM.
Compound `N#Cc1cc(F)c2nc(COc3cccc(C4CCN(Cc5nc6ccc(C(=O)O)cc6n5Cc5cncs5)CC4)n3)sc2c1` [Compound 5] displayed an EC50 at human GLP-1R receptor of 5.4 nM.
As for `N#Cc1cc(F)c2nc(COc3cccc(C4CCN(Cc5nc6ccc(C(=O)O)cc6n5Cc5scnc5Br)CC4)n3)sc2c1` [Compound 6], the EC50 on human GLP-1R receptor turned out to be 135 nM.
On the same count and under the same terms, under `C=Cc1ncsc1Cn1c(CN2CCC(c3cccc(OCc4nc5c(F)cc(C#N)cc5s4)n3)CC2)nc2ccc(C(=O)O)cc21` [Compound 7] stands 90.6 nM.
On human GLP-1R receptor, `CCc1ncsc1Cn1c(CN2CCC(c3cccc(OCc4nc5c(F)cc(C#N)cc5s4)n3)CC2)nc2ccc(C(=O)O)cc21` [Compound 8] returned an EC50 of 360 nM.
On the same count and under the same terms, under `N#Cc1cc(F)c2nc(COc3cccc(C4CCN(Cc5nc6ccc(C(=O)O)cc6n5Cc5ccns5)CC4)n3)sc2c1` [Compound 9] stands 16.6 nM.
`COc1ccsc1Cn1c(CN2CCC(c3cccc(OCc4nc5c(F)cc(C#N)cc5s4)n3)CC2)nc2ccc(C(=O)O)cc21` [Compound 10] displayed a concentration for a half-maximal effect (EC50) on human GLP-1R receptor of 393 nM.
With `Cc1scnc1Cn1c(CN2CCC(c3cccc(OCc4nc5c(F)cc(C#N)cc5s4)n3)CC2)nc2ccc(C(=O)O)cc21` [Compound 11], the midpoint of the response on human GLP-1R receptor, the EC50, lay at 292 nM.
`Cc1ncsc1Cn1c(CN2CCC3(c4cccc(OCc5ccc(C#N)cc5F)n4)CC3C2)nc2ccc(C(=O)O)cc21` (centres unmarked) [Compound 12]: in data set [2], the CLint scaled at 1 μM came to 26.8 ± 0.8 mL/min/kg and the half-life at 1 μM stood at 1.49 ± 0.0445 h. Also, in the data set on rat hepatocytes, the “CLint relative to reference standard” value is listed as “significantly increased” and the “Half-life relative to reference” value was “significantly lower”. In addition, in data set [3], the CLint scaled at 1 μM is 91.7 ± 1.76 mL/min/kg and the half-life at 1 μM stood at 0.604 ± 0.0117 h. The compound also registered an EC50 on human GLP-1R receptor of 232 nM.
In the case of `CCc1scnc1Cn1c(CN2CCC(c3cccc(OCc4nc5c(F)cc(C#N)cc5s4)n3)CC2)nc2ccc(C(=O)O)cc21` [Compound 13], the “Half-life relative to reference” value in the data set on rat hepatocytes was “significantly lower”. On human GLP-1R receptor, this compound returned an EC50 of 724 nM.
Regarding `N#Cc1ccc(COc2cccc(C3CCN(Cc4nc5ccc(C(=O)O)cc5n4Cc4scnc4Cl)CC3)n2)c(F)c1` [Compound 15], a half-maximal response on human GLP-1R receptor (EC50) required 25.8 nM.
Consider `N#Cc1ccc(COc2ccnc([C@]34CCN(Cc5nc6ccc(C(=O)O)cc6n5Cc5cncs5)C[C@H]3C4)n2)c(F)c1` [Compound 18], for which the EC50 at human GLP-1R receptor came out at 9.9 nM.
With `N#Cc1ccc(COc2ccnc([C@@]34CCN(Cc5nc6ccc(C(=O)O)cc6n5Cc5cncs5)C[C@@H]3C4)n2)c(F)c1` [Compound 19], the EC50 on human GLP-1R receptor was found to be 161 nM.
Turning to `O=C(O)c1ccc2nc(CN3CC[C@]4(c5nccc(OCc6ccc(Cl)cc6F)n5)C[C@@H]4C3)n(Cc3cncs3)c2c1` [Compound 21], the EC50 at human GLP-1R receptor was 6.6 nM.
Take `O=C(O)c1ccc2nc(CN3CC[C@@]4(c5nccc(OCc6ccc(Cl)cc6F)n5)C[C@H]4C3)n(Cc3cncs3)c2c1` [Compound 22]: the EC50 at human GLP-1R receptor amounted to 87.5 nM.
`O=C(O)c1ccc2nc(CN3CC[C@]4(c5cccc(OCc6ccc(Cl)cc6F)n5)C[C@@H]4C3)n(Cc3cncs3)c2c1` [Compound 24] had a concentration giving a half-maximal response (EC50) on human GLP-1R receptor of 15.1 nM.
Compound `O=C(O)c1ccc2nc(CN3CC[C@@]4(c5cccc(OCc6ccc(Cl)cc6F)n5)C[C@H]4C3)n(Cc3cncs3)c2c1` [Compound 25] displayed a peak concentration (Cmax) in data set [1] (rat, plasma, po, 3 mg/kg, 3 mg/kg PO (0.6 mg/mL)) of 412 ± 98.3 ng/mL. Besides, in data set [1] (3 mg/kg PO (0.6 mg/mL)), the area under the curve AUC(0-t) stood at 558 ± 100 ng·h/mL and the half-life is 1.52 ± 0.21 h. The “PK properties relative to Reference Compound A” value in data set [1] (rat, dosed orally) is “similarly improved PK properties”. For the same compound, at human GLP-1R receptor, the midpoint of the response, the EC50, lay at 24.4 nM.

The values above are taken from patent publication US12522596B2, “Compounds as GLP-1R agonists” (Terns Pharmaceuticals, Inc., priority 2021, dated 2026).
